This passage reports Ki results from ChEMBL document CHEMBL1944554, “Structure-activity relationships for the interaction of 5,10-dihydroindeno[1,2-b]indole derivatives with human and bovine carbonic anhydrase isoforms I, II, III, IV and VI” (Eur J Med Chem, 2012).

In test [1] the target is T1, Carbonic anhydrase 3 (Bos taurus, UniProt Q3SZX4).
T1 sequence (Q3SZX4 whole entry): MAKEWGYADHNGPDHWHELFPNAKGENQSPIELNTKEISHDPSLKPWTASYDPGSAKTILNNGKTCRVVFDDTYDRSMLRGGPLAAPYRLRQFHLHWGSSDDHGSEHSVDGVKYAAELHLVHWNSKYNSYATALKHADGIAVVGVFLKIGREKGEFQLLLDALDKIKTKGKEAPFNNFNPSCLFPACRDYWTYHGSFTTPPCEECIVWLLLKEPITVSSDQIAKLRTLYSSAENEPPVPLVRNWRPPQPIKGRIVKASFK
The experiment in a line: Inhibition of bovine carbonic anhydrase 3 using 4-nitrophenylacetate as substrate after 3 mins using spectrophotometry by Lineweaver-Burk plot analysis.

The target in test [2] is Carbonic anhydrase 4 (Homo sapiens, UniProt P22748). The experiment in a line: Inhibition of human carbonic anhydrase 4 using 4-nitrophenylacetate as substrate after 3 mins using spectrophotometry by Lineweaver-Burk plot analysis.
In test [3] the target is Carbonic anhydrase 6 (Homo sapiens, UniProt P23280). The experiment in a line: Inhibition of human carbonic anhydrase 6 using 4-nitrophenylacetate as substrate after 3 mins using spectrophotometry by Lineweaver-Burk plot analysis.
In test [4] the target is Carbonic anhydrase 1 (Homo sapiens, UniProt P00915). The experiment in a line: Inhibition of human carbonic anhydrase 1 using 4-nitrophenylacetate as substrate after 3 mins using spectrophotometry by Lineweaver-Burk plot analysis.
Test [5] concerns the target Carbonic anhydrase 2 (Homo sapiens, UniProt P00918). The experiment in a line: Inhibition of human carbonic anhydrase 2 using 4-nitrophenylacetate as substrate after 3 mins using spectrophotometry by Lineweaver-Burk plot analysis.

Chain of Carbonic anhydrase 1 (P00915 whole entry): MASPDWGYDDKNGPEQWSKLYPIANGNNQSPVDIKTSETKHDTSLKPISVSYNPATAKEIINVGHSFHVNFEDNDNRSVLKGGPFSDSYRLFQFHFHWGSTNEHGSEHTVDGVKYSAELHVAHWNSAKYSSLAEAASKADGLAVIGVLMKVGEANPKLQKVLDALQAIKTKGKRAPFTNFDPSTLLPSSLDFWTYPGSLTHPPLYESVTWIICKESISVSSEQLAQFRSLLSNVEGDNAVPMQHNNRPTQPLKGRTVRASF
Chain of Carbonic anhydrase 4 (P22748 whole entry): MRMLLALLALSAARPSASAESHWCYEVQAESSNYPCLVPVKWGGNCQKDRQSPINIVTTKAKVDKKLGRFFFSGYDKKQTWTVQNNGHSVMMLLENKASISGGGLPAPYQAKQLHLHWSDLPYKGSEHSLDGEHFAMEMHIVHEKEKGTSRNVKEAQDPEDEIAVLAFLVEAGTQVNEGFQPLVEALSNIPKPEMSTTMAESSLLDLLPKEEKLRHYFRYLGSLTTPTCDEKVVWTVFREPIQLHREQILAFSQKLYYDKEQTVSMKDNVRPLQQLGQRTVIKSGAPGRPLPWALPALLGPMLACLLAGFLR
Chain of Carbonic anhydrase 6 (P23280 whole entry): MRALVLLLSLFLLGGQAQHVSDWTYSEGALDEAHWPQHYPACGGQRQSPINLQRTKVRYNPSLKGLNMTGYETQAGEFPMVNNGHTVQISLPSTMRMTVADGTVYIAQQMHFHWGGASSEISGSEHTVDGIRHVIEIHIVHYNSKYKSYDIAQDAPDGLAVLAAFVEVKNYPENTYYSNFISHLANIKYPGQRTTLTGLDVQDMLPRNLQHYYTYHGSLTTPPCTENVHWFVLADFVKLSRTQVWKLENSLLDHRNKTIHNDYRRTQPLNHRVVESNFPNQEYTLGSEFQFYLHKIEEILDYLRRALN

What is called Ki is the equilibrium dissociation constant of an inhibitor or competing ligand from its target. In test [1], `COc1ccc(OC)c2c1Cc1c-2[nH]c2ccccc12` registered a Ki of 11.2 µM.

`Oc1ccc2c(c1)-c1[nH]c3ccccc3c1C2` gave a Ki in test [1] of 9.42 µM.

The compound `Oc1ccc2c(c1O)Cc1c-2[nH]c2ccccc12` had a Ki in test [1] of 2.13 µM.

Take `COc1ccccc1OC` [1,2-DIMETHOXYBENZENE]: the affinity in test [1] corresponds to a Ki of 4.24 µM.

In test [1], `Oc1cccc2c1-c1[nH]c3ccccc3c1C2` had a Ki of 9.62 µM.

In test [1], `Brc1ccc2c(c1)Cc1c-2[nH]c2ccccc12` gave a Ki of 8.51 µM.

The compound `Clc1ccc2c(c1)Cc1c-2[nH]c2ccccc12` yielded a Ki in test [1] of 8.72 µM.

`COc1cc2c(c(OC)c1)-c1[nH]c3ccccc3c1C2` gave an inhibitory constant (Ki) in test [1] of 14.3 µM.

For `Oc1ccc2c(c1)Cc1c-2[nH]c2ccccc12`, affinity in test [1] was put at a Ki of 9.08 µM.

As to `C[C@]12CC[C@@H]3c4ccc(OS(N)(=O)=O)cc4CC[C@H]3[C@@H]1CCC2=O` [EMATE], the Ki stood at 1.04 µM in test [2], 12.4 µM in test [1], 1.86 µM in test [3] and 12.3 µM in test [4].

Regarding `CCOc1ccc2nc(S(N)(=O)=O)sc2c1` [ETHOXZOLAMIDE], affinity in test [1] was put at a Ki of 9.44 µM.

For `c1ccc2c3c([nH]c2c1)-c1cc2c(cc1C3)OCO2`, in test [1], the Ki came out at 12.7 µM.

In turn, `Oc1ccc(O)c2c1Cc1c-2[nH]c2ccccc12` gave an inhibitory constant (Ki) in test [1] of 4.34 µM.

Take `c1ccc2[nH]ccc2c1` [INDOLE]: the Ki in test [5] was determined as 32.5 µM; in test [2] it was 2.33 µM; in test [1], 17.6 µM; in test [3], 3.63 µM; in test [4], 27.4 µM.

As for `c1ccc2c(c1)Cc1c-2[nH]c2ccccc12`, the affinity in test [1], expressed as Ki, was 17.8 µM.

Compound `Oc1cc(O)c2c(c1)Cc1c-2[nH]c2ccccc12` returned a Ki in test [1] of 4.63 µM.

On to `COc1cc2c(cc1OC)-c1[nH]c3ccccc3c1C2`, for which affinity in test [1] was put at a Ki of 15.8 µM.

For `COc1ccc2c(c1OC)Cc1c-2[nH]c2ccccc12`, the affinity in test [1] corresponds to a Ki of 10.3 µM.

`Oc1ccccc1O` [CATECHOL] yielded a Ki in test [1] of 3.48 µM.

In turn, `Oc1cccc2c1Cc1c-2[nH]c2ccccc12` displayed a Ki in test [1] of 8.84 µM.

In turn, `COc1ccc2c(c1)Cc1c-2[nH]c2ccccc12` returned a Ki in test [1] of 14.9 µM.

`COc1cccc2c1Cc1c-2[nH]c2ccccc12` showed an inhibition constant (Ki) in test [1] of 16.3 µM.

With `Fc1ccc2c(c1)Cc1c-2[nH]c2ccccc12`, in test [1], the Ki turned out to be 8.63 µM.

`Oc1cc2c(cc1O)-c1[nH]c3ccccc3c1C2` came in with a Ki in test [1] of 5.17 µM.

`NS(=O)(=O)Cc1noc2ccccc12` [ZONISAMIDE] came in with a Ki in test [1] of 8.51 µM.

For `COc1ccc2c(c1)-c1[nH]c3ccccc3c1C2`, the Ki in test [1] was 15.6 µM.
